Assay results published in US11684667B2 (priority 2017, dated 2023).

How the values were obtained:
BMDMs [1] = type: cell-based, mouse; conditions: N15m1-infected BMDMs, MOI 0.1, 18 hpi; zVAD 20 μM, C16 1 μM
Protocol: Bioanalyzer RNA analysis. Equal amounts of total RNA purified from BMDMs were analyzed on an Agilent 2100 Bioanalyzer using RNA Nano LabChips.

BMDMs [2] = type: cell-based, mouse; conditions: zVAD 20 μM
Protocol: Cell death assays. Cell viability and Caspase 3/7 activity were measured using CellTiter Glo (G7571, Promega) or CaspaseGlo 3/7 (G8091, Promega) respectively, according to the manufacturer's protocol, with modification.
Cell death assays. Cell viability and Caspase 3/7 activity were measured using CellTiter Glo (G7571, Promega) or CaspaseGlo 3/7 (G8091, Promega) respectively, according to the manufacturer's protocol, with modification. Briefly, 3.0×10^5 BMDMs/well were plated in 24-well plates and infected at an MOI of 0.1 for 1 h in serum-free media. Media was replaced with complete media, or for addition of chemical inhibitors, viral inoculum was replaced with completed BMM media containing indicated concentration of inhibitors. Infected BMDMs were incubated for 24h at 37° C./5% CO2. BMDMs were washed twice with 1×PBS and lysed with 100 μL Glo reagent/medium mixture (1:1). 50 μL of cell lysate was used for measuring the luminescence signal. Standard deviation and unpaired t test were performed on technical triplicates and data are representative of three independent experiments. Graphs of cell viability were generated using Prism 7 software (GraphPad Software, Inc.).

zVAD
effect of inhibitor on degradation of host rRNA (BMDMs [1]): not inhibited | prevention of virus-induced cell death by inhibitor (BMDMs [2]; N15m1-infected BMDMs, 24 hpi, Nec-1 25 μM, VX-765 20 μM): prevented virus-induced cell death | effect of inhibitor on caspase 3/7 activation in N15m1-infected BMDMs (BMDMs [2]; C16 1 μM): inhibited by zVAD
